Results reported in ChEMBL document CHEMBL1201862, “PubChem BioAssay data set” (2004).
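Tested at 5 concentrations; 48 h exposure; 96-well plates; endpoints linearly interpolated, else capped at highest concentration. GI50 is the concentration that inhibits growth by half.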 Calls of active or inactive are those of the source. Cut-off read from the data, not from the text of the source: active = GI50 up to about 1.1 µM and inactive = higher.

Key:
Experiment in all cases: NCI anticancer screen, dose series, 48 h
[1] = tested on: NCI-H23
[2] = tested on: SK-MEL-2
[3] = tested on: SK-OV-3
[4] = tested on: SNB-19
[5] = tested on: NCI/ADR-RES
[6] = tested on: RPMI-8226
[7] = tested on: OVCAR-8
[8] = tested on: UACC-62
[9] = tested on: UACC-257
[10] = tested on: OVCAR-5
[11] = tested on: A549
[12] = tested on: SK-MEL-5
[13] = tested on: A498
[14] = tested on: NCI-H226
[15] = tested on: PC-3
[16] = tested on: HT-29
[17] = tested on: ACHN
[18] = tested on: HCT-15
[19] = tested on: MDA-N
[20] = tested on: CAKI-1

Structure (SMILES)	GI50 [1]	GI50 [2]	GI50 [3]	GI50 [4]	GI50 [5]	GI50 [6]	GI50 [7]	GI50 [8]	GI50 [9]	GI50 [10]	GI50 [11]	GI50 [12]	GI50 [13]	GI50 [14]	GI50 [15]	GI50 [16]	GI50 [17]	GI50 [18] [µM]	GI50 [19]	GI50 [20]
C[N+](C)(C)/N=C\c1ccc(O)c(O)c1	> 100 µM (inactive)	> 100 µM (inactive)	> 100 µM (inactive)	> 100 µM (inactive)	> 100 µM (inactive)	> 100 µM (inactive)	> 100 µM (inactive)	> 100 µM (inactive)	> 100 µM (inactive)	> 100 µM (inactive)	> 100 µM (inactive)	> 100 µM (inactive)	> 100 µM (inactive)	> 100 µM (inactive)	> 100 µM (inactive)	> 100 µM (inactive)	> 100 µM (inactive)	> 100	> 100 µM (inactive)	> 100 µM (inactive)
CCc1ccc(CCN2CCCCC2)nc1	> 100 µM (inactive)	> 100 µM (inactive)	> 100 µM (inactive)	> 100 µM (inactive)	> 100 µM (inactive)	96.8 µM (inactive)	> 100 µM (inactive)	> 100 µM (inactive)	> 100 µM (inactive)	> 100 µM (inactive)	> 100 µM (inactive)	> 100 µM (inactive)	> 100 µM (inactive)	> 100 µM (inactive)	> 100 µM (inactive)	> 100 µM (inactive)	> 100 µM (inactive)	> 100	> 100 µM (inactive)	> 100 µM (inactive)
CN(CCNC(=O)c1c[nH]c2c1ccc1ccccc12)CCNC(=O)c1c[nH]c2c1ccc1ccccc12	4.39 µM (inactive)	1.99 µM (inactive)	4.23 µM (inactive)	2.23 µM (inactive)	4.81 µM (inactive)	3.15 µM (inactive)	1.93 µM (inactive)	1.75 µM (inactive)	1.79 µM (inactive)	4.74 µM (inactive)	2.2 µM (inactive)	7.29 µM (inactive)	1.53 µM (inactive)	18.1 µM (inactive)	2.26 µM (inactive)	1.87 µM (inactive)	1.86 µM (inactive)	1.92	2.31 µM (inactive)	2.56 µM (inactive)
O=c1c2cc(I)ccc2nc(Sc2ccc([N+](=O)[O-])cc2[N+](=O)[O-])n1Cc1ccccc1	3.02 µM (inactive)	1.85 µM (inactive)	8.13 µM (inactive)	6.65 µM (inactive)	1.83 µM (inactive)	1.74 µM (inactive)	1.6 µM (inactive)	2.29 µM (inactive)	4.65 µM (inactive)	9.02 µM (inactive)	15.2 µM (inactive)	3.48 µM (inactive)	7.03 µM (inactive)	2.74 µM (inactive)	2.89 µM (inactive)	3.24 µM (inactive)	8.73 µM (inactive)	1.61	1.52 µM (inactive)	2.64 µM (inactive)
CC(=O)OC1CCC2(C)C(=CCC3C2CCC2(C)C(C(C)C(=O)O)CCC32)C1 (stereo not given)	> 100 µM (inactive)	> 100 µM (inactive)	> 100 µM (inactive)	> 100 µM (inactive)	> 100 µM (inactive)	> 100 µM (inactive)	> 100 µM (inactive)	> 100 µM (inactive)	> 100 µM (inactive)	> 100 µM (inactive)	54.8 µM (inactive)	70.6 µM (inactive)	59.7 µM (inactive)	> 100 µM (inactive)	> 100 µM (inactive)	48.6 µM (inactive)	59.7 µM (inactive)	78.5	> 100 µM (inactive)	> 100 µM (inactive)
C[C@H]1CC(=O)[C@@]2(O)C#C/C=C\C#C[C@@H]3Nc4c(cc(O)c5c4C(=O)c4ccccc4C5=O)[C@]24O[C@]314	0.00461 µM (active)	0.478 µM (active)	0.0171 µM (active)	0.0199 µM (active)	0.00914 µM (active)	0.00356 µM (active)	0.0158 µM (active)	0.00764 µM (active)	0.00231 µM (active)	0.0685 µM (active)	0.00543 µM (active)	0.00266 µM (active)	0.0586 µM (active)	0.00356 µM (active)	0.259 µM (active)	0.0619 µM (active)	< 0.001 µM (active)	0.0248	0.0309 µM (active)	< 0.001 µM (active)
C=CCc1cccc2cc(C(=O)NC3CCCCC3)c(=N)oc12	19.9 µM (inactive)	3.98 µM (inactive)	24 µM (inactive)	21.4 µM (inactive)	27.4 µM (inactive)	45.6 µM (inactive)	32.6 µM (inactive)	16.3 µM (inactive)	25.1 µM (inactive)	17.9 µM (inactive)	32.2 µM (inactive)	14 µM (inactive)	16.7 µM (inactive)	20.1 µM (inactive)	16.1 µM (inactive)	27.2 µM (inactive)	11.1 µM (inactive)	14.1	19.1 µM (inactive)	16.8 µM (inactive)
